Reference: patent US9822155B2 (priority 2013, dated 2017)
Converted amounts (≈) assume the structure as drawn. Like-named read-outs stand apart in the source and are kept apart here. Peptide text beside a SMILES is read from it.

What was measured:
influenza A virus (H1N1) = assay type: cell-based, influenza A virus A/Hong Kong/415742Md/2009 (H1N1)
[1] = system: A/Hong Kong/415742Md/2009 (H1N1); assay type: in vivo
in vitro = conditions: dog, MDCK cells

SMILES | antiviral effectiveness in low-salt PB compared with high-salt MEM (influenza A virus (H1N1)) | TC50 (50% toxic concentration) (MDCK cells) [mg/L] | CC50 at 24 h (in vitro) [mg/L] | viability at 24 h, 7.8 µg/mL (in vitro) [%] | viability at 24 h, 15.6 µg/mL (in vitro) [%] | viability at 24 h, 31.25 µg/mL (in vitro) [%] | viability at 24 h, 62.5 µg/mL (in vitro) [%] | viability at 24 h, 125 µg/mL (in vitro) [%] | viability at 24 h, 250 µg/mL (in vitro) [%] | also measured
CC[C@H](C)[C@H](NC(=O)[C@H](C)NC(=O)CNC(=O)[C@@H](N)CC(N)=O)C(=O)N[C@@H](CS)C(=O)N[C@@H](Cc1c[nH]c2ccccc12)C(=O)NCC(=O)N1CCC[C@H]1C(=O)N[C@@H](CS)C(=O)N1CCC[C@H]1C(=O)N[C@H](C(=O)N[C@@H](C)C(=O)N[C@@H](Cc1ccccc1)C(=O)N[C@@H](CCCNC(=N)N)C(=O)N[C@@H](CCC(N)=O)C(=O)N[C@H](C(=O)NCC(=O)N[C@@H](CC(N)=O)C(=O)N[C@@H](CS)C(=O)NCC(=O)N[C@@H](Cc1c[nH]cn1)C(=O)N[C@@H](Cc1ccccc1)C(=O)N[C@@H](CCCCN)C(=O)N[C@H](C(=O)N[C@@H](CCCNC(=N)N)C(=O)N[C@@H](CS)C(=O)N[C@@H](CS)C(=O)N[C@@H](CCCCN)C(=O)N[C@H](C(=O)N[C@@H](CCCNC(=N)N)C(=O)O)[C@@H](C)CC)C(C)C)[C@@H](C)CC)[C@@H](C)O [Peptide P9] (H-NGAICWGPCPTAFRQIGNCGHFKVRCCKIR-OH) | more effective in low-salt phosphate buffer (PB) than in high-salt minimum essential medium (MEM) | 860 (≈ 258 µM) | 860 (≈ 258 µM) | 102 | 95.9 | 108 | 96 | 94.7 | 95.3 | antiviral effect (infection ratio by plaque assay) (influenza A virus (H1N1)): highest antiviral effect; viral loads in lung tissues (RNA copies by RT-PCR, titers by plaque assay) ([1]; pretreated and i.n. or i.p. treated mice, day 5 after challenge, versus untreated): significantly lower than those of the untreated mice; alveolar damage and interstitial inflammatory infiltration in lung (H&E) ([1]; pretreated or treated mice versus rmBD4 and untreated mice): much less severe; survival rate ([1]; prophylactic, i.n. 50 μg/mouse before challenge with 5 LD50 H1N1, 9 mice/group, 21 days): 100%; survival rate ([1]; therapeutic, i.n. 3 doses 50 μg/dose/day starting 4 hours after lethal challenge): 67%; survival rate ([1]; therapeutic, i.p. 6 doses 200 μg/dose/day starting 4 hours post-challenge): 22%; survival rate ([1]; therapeutic, i.p. 6 doses 400 μg/dose/day starting 4 hours post-challenge): 56%; binding of P9 to cells (H1N1 virus): no P9 (SEQ ID NO: 10) was detected on the cell membrane or inside the cells; binding of P9 to virus particles (H1N1 virus): bound to the green-labeled virus particles; virus binding to the cell membrane (H1N1 virus): could not block the virus binding to the cell membrane; virus entry into cells by endocytosis (H1N1 virus): did not affect the virus entry into cells by endocytosis; endosomal acidification (red fluorescence of pHrodo Red dextran) (endosomal acidification): no red fluorescence in color image was observed; viability at 24 h, 500 µg/mL (in vitro): 83.4%; viability at 24 h, 750 µg/mL (in vitro): 59.8%; viability at 24 h, 1000 µg/mL (in vitro): 38.7%
CC[C@H](C)[C@H](N)C(=O)N[C@H](C(=O)N[C@@H](CC(N)=O)C(=O)N[C@@H](CC(N)=O)C(=O)N1CCC[C@H]1C(=O)N[C@H](C(=O)N[C@H](C(=O)N[C@@H](CS)C(=O)N[C@@H](CCSC)C(=O)N[C@H](C(=O)N[C@@H](CC(N)=O)C(=O)NCC(=O)N[C@@H](C)C(=O)N[C@H](C(=O)N[C@@H](CS)C(=O)N[C@@H](Cc1c[nH]c2ccccc12)C(=O)NCC(=O)N1CCC[C@H]1C(=O)N[C@@H](CS)C(=O)N1CCC[C@H]1C(=O)N[C@H](C(=O)N[C@@H](C)C(=O)N[C@@H](Cc1ccccc1)C(=O)N[C@@H](CCCNC(=N)N)C(=O)N[C@@H](CCC(N)=O)C(=O)N[C@H](C(=O)NCC(=O)N[C@@H](CC(N)=O)C(=O)N[C@@H](CS)C(=O)NCC(=O)N[C@@H](Cc1c[nH]cn1)C(=O)N[C@@H](Cc1ccccc1)C(=O)N[C@@H](CCCCN)C(=O)N[C@H](C(=O)N[C@@H](CCCNC(=N)N)C(=O)N[C@@H](CS)C(=O)N[C@@H](CS)C(=O)N[C@@H](CCCCN)C(=O)N[C@H](C(=O)N[C@@H](CCCNC(=N)N)C(=O)O)[C@@H](C)CC)C(C)C)[C@@H](C)CC)[C@@H](C)O)[C@@H](C)CC)[C@@H](C)O)[C@@H](C)O)[C@@H](C)CC)[C@@H](C)CC [smBD4, reference compound] | more effective in low-salt phosphate buffer (PB) than in high-salt minimum essential medium (MEM) | 94 (≈ 21.2 µM) | 94 (≈ 21.2 µM) | 93.7 | 85.3 | 71.9 | 60 | 45.5 | 36.5 | –
